In US20130096159A1, “INHIBITORS OF HUMAN 12-LIPOXYGENASE” (The United States of America, as represented the Secretary …, priority 2010, published 2013):

Columns and labels:
Human islets = experiment: gene expression in cytokine-stimulated human islets, Taqman real time PCR; format: cell-based; details: TNF-α
Protocol: Human islets were incubated for 22 hours following stimulation with the inflammatory cytokines IFN-γ, TNF-α, and IL-1-β alone or in the presence of compound 1 or compound 9. Control islets were incubated for 22 hours in the absence of inflammatory cytokines or compounds. Following the incubation, gene expression for 12-LO, 15-LO, 5-LO, IL-12p40, and IFN-γ were determined using Taqman real time PCR.

human 5-lipoxygenase = target: T1, human 5-lipoxygenase (Homo sapiens, UniProt P09917); experiment: 5hLO inhibition screen; format: biochemical; details: Table 2
T1 sequence (P09917 1-674): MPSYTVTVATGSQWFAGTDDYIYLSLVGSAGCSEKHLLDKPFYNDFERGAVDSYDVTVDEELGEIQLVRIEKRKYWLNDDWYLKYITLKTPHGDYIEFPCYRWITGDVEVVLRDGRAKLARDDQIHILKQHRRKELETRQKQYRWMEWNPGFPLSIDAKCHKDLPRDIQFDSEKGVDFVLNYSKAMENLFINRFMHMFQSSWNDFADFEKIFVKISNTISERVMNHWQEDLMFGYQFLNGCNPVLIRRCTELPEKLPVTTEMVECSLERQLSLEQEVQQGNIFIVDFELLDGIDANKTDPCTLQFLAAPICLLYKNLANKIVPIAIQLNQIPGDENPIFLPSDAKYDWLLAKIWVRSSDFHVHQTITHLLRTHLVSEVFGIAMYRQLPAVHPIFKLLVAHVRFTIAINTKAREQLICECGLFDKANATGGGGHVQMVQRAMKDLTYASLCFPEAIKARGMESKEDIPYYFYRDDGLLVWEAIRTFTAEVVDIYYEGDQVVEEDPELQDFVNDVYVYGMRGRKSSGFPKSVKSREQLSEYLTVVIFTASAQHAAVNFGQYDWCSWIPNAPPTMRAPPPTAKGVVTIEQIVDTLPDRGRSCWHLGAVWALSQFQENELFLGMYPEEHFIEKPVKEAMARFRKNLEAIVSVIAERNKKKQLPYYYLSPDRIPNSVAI

human 15-lipoxygenase-2 = target: T2, human 15-lipoxygenase-2 (Homo sapiens, UniProt O15296); experiment: 15hLO-2 inhibition screen; format: biochemical; details: Table 2
T2 sequence (O15296 1-676): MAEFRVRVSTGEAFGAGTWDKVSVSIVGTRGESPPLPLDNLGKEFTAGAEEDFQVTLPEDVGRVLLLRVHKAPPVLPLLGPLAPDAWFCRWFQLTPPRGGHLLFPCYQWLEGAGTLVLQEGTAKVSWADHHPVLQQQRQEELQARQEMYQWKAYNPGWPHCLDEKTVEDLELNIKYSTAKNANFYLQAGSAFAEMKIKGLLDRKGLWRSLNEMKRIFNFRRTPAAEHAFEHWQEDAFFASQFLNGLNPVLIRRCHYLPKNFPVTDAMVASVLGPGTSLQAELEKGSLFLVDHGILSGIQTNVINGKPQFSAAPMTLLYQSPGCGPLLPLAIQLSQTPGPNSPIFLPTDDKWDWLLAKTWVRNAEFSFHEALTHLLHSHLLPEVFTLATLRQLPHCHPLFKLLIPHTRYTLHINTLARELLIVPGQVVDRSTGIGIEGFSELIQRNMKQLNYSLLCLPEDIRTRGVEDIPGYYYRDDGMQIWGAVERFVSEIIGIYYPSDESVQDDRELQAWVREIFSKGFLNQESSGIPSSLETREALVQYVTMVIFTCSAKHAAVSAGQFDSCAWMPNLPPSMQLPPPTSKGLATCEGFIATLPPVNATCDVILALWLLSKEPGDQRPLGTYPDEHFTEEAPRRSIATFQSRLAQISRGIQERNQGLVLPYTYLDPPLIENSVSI

human 12-lipoxygenase = target: T3, human 12-lipoxygenase (Homo sapiens, UniProt P18054); experiment: human 12-lipoxygenase inhibition (12hLO) assay, absorbance at 234 nm; format: biochemical
T3 sequence (P18054 1-663): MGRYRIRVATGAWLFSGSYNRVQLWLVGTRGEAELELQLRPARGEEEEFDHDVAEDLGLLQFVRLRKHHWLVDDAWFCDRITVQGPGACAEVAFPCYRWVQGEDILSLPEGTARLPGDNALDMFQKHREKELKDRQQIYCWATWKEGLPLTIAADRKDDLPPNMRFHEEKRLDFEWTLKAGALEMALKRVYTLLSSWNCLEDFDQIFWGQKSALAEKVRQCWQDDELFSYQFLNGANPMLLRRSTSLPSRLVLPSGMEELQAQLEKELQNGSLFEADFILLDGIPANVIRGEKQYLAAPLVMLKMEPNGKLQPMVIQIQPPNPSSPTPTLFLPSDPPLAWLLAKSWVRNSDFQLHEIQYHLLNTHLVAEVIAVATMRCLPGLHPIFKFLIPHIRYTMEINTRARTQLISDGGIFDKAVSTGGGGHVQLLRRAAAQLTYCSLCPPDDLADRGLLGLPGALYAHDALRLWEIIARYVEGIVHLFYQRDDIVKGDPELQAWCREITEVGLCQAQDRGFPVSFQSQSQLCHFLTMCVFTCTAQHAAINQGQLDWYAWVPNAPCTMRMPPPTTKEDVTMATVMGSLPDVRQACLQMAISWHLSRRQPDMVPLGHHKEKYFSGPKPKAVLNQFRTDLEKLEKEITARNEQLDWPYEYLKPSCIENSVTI

recombinant human cPLA2 = target: T4, recombinant human cPLA2 (Homo sapiens, UniProt P47712); experiment: cPLA2 enzymatic activity assay; format: biochemical; details: 5 min of incubation, FIG. 8
T4 sequence (P47712 1-749): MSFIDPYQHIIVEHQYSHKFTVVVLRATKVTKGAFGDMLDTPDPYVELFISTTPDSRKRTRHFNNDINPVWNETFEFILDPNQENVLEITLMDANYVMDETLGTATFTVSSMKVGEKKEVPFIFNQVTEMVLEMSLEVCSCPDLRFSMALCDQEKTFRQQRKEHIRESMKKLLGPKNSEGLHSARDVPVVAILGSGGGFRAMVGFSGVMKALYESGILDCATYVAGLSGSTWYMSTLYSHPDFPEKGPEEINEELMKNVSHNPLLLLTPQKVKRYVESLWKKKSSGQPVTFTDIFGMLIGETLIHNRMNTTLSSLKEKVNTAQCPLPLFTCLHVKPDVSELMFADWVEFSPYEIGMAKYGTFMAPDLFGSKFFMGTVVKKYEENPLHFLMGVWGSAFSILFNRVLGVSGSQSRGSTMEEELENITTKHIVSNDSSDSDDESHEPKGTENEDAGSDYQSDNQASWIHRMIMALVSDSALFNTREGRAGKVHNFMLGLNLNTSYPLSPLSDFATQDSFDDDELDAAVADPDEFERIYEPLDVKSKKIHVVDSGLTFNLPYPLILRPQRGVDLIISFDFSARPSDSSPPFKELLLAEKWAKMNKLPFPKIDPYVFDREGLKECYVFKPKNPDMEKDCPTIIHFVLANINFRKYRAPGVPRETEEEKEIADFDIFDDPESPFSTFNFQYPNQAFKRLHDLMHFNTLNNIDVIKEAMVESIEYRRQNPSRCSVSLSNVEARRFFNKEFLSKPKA
Protocol: A., et al., Biochemistry, 2011, 50: 1731-1738 with the following differences. The inhibitors in solution in DMSO were added at a final concentration of 50 μM right before the recombinant enzyme was added to initiate the reaction. After 5 min of incubation, the products of reaction were analyzed, and the results depicted in FIG. 8.

mouse plasma stability = format: in vitro ADME
[1] = mouse liver microsome stability; format: in vitro ADME; details: liver microsomes, read-out: mouse liver microsome stability (T1/2)
Caco-2 = Caco-2 permeability; format: in vitro ADME
PBS buffer stability = format: physicochemical
[2] = aqueous kinetic solubility; format: physicochemical
[3] = in vivo PK, IP administration in CD1 mice; details: IP 30 mg/kg
[4] = relative to control islets, IFN-γ, IL-1-β stimulation, 22 hours

CCC(=O)NC(c1ccco1)c1cc(Cl)c2cccnc2c1O (stereo not drawn) [Compound 9, N-((5-chloro-8-hydroxyquinolin-7-yl)(furan-2-yl)methyl)propionamide]
reduction in IFN-γ expression (Human islets; induced by IFN-γ, IL-1-β): 4 fold | reduction in IL-12p40 mRNA expression (Human islets; induced by IFN-γ, IL-1-β): 40 fold | Change in Gene Expression 5-LO (Human islets; [4]): 1 | Change in Gene Expression 12-LO (Human islets; [4]): 12 | Change in Gene Expression 15-LO (Human islets; [4]): 4 | Change in Gene Expression IFN-γ (Human islets; [4]): 4 | Change in Gene Expression IL-12p40 (Human islets; [4]): 3 | IC50 (human 5-lipoxygenase): > 150 µM | IC50 (human 15-lipoxygenase-2): > 150 µM | selectivity for inhibition of human 12-lipoxygenase as compared with human 5-lipoxygenase, 15-lipoxygenase-1 and 15-lipoxygenase-2 (human 12-lipoxygenase): exhibited selectivity | IC50 (human 12-lipoxygenase; 12hLO Inhibition, Table 1, read-out: IC50 (μM) [± SD μM]): 1 µM

O=c1cc(-c2ccccc2)oc2cc(O)c(O)c(O)c12 [baicalein, reference compound]
inhibition at 50 µM (recombinant human cPLA2): ~60%

CC(=O)NC(c1cccs1)c1cc(Br)c2cccnc2c1O (single isomer, unassigned) [Compound 36, N-((5-bromo-8-hydroxyquinolin-7-yl)(thiophen-2-yl)methyl)acetamide]
stability in mouse plasma (in words) (mouse plasma stability): excellent | half-life [1]: < 10 min | cell permeability (in words) (Caco-2): good | Caco-2 (Papp 10^−6 m/s @ pH 7.4) (Caco-2; pH 7.4): 8.8 10^−6 m/s | IC50 (human 5-lipoxygenase): > 250 µM | times more potent as an inhibitor of 12-lipoxygenase than the dextrorotatory enantiomer (human 12-lipoxygenase; levorotatory vs dextrorotatory enantiomer): more than 58 times | stability in PBS buffer (in words) (PBS buffer stability): excellent | PBS-pH 7.4 stability: % remaining after 48 h (PBS buffer stability; PBS pH 7.4, 48 h): 100% | aqueous kinetic solubility (in words) [2]: acceptable | crossing of the blood-brain barrier [3]: does not efficiently cross the blood-brain barrier | t1/2 (h) (brain) ([3]; brain): 1.7 h | t1/2 (h) (plasma) ([3]; plasma): 3.5 h | tmax (h) [plasma] ([3]; plasma): 0.25 h | Tmax ([3]; mouse, brain): 30 min | Kp at 24 h ([3]; mouse, brain/plasma, average [b/p] ratio over 8 time points (24 h period)): 0.01
